From the supplement of paper PMC7840683

Test system: HepaRG
Assay: LDH release cytotoxicity, % of total lysis control; higher = more cytotoxic
Settings: 48 h
How it was run: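 Single-lot HepaRG cells on collagen I-coated 96-well plates were exposed for 48 h in duplicate, in serum-free induction medium with 0.5% DMSO, to eight-point half-log series (test chemicals top 100 µM). Total lysis wells received 0.1% Triton X, and LDH leakage into 50 µL spent medium was read as resorufin fluorescence (CytoTox-ONE, Tecan Safire). Percent cytotoxicity was normalized to on-plate vehicle and total lysis controls and averaged over the duplicates.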

Cc1ccccc1Cl [2-Chlorotoluene]
Settings | LDH release cytotoxicity [%]
0.03162 µM | -1.99
0.1 µM | -1.94
0.3162278 µM | -2.27
1 µM | -1.84
3.16228 µM | -2.6
10 µM | -1.26
31.6228 µM | -0.387
100 µM | 0.838

C=CCC1=C(C)C(OC(=O)C2C(C=C(C)C)C2(C)C)CC1=O (configuration not stated) [Allethrin]
Settings | LDH release cytotoxicity [%]
0.03162 µM | 0.254
0.1 µM | -0.919
0.3162278 µM | -1.19
1 µM | -0.231
3.16228 µM | -1.87
10 µM | -1.69
31.6228 µM | -0.447
100 µM | -0.904

O=C1C2CC=CCC2C(=O)N1SC(Cl)(Cl)Cl (configuration not stated) [Captan]
Settings | LDH release cytotoxicity [%]
0.03115 µM | -0.761
0.0985 µM | -0.69
0.311484 µM | -1.02
0.985 µM | -1.31
3.11484 µM | -1.78
9.85 µM | -0.651
31.1484 µM | 0.632
98.5 µM | 27.6

Cc1ccc(N)cc1O [5-Amino-2-methylphenol]
Settings | LDH release cytotoxicity [%]
0.03162 µM | -0.861
0.1 µM | -1.2
0.3162278 µM | -0.469
1 µM | -1.04
3.16228 µM | -0.613
10 µM | -0.636
31.6228 µM | -0.124
100 µM | 0.121

Cc1cc(C2CC2)nc(Nc2ccccc2)n1 [Cyprodinil]
Settings | LDH release cytotoxicity [%]
0.03162 µM | -1.37
0.1 µM | -0.753
0.3162278 µM | -0.874
1 µM | -1.16
3.16228 µM | -0.24
10 µM | -0.264
31.6228 µM | 0.71
100 µM | 11.3

c1ccc(Nc2ccccc2)cc1 [Diphenylamine]
Settings | LDH release cytotoxicity [%]
0.03162 µM | -0.79
0.1 µM | -0.775
0.3162278 µM | -0.986
1 µM | -1.44
3.16228 µM | -1.13
10 µM | -1
31.6228 µM | 0.0424
100 µM | 3.57

CCCCCc1ccc(N)cc1 [4-Pentylaniline]
Settings | LDH release cytotoxicity [%]
0.03162 µM | -0.0179
0.1 µM | -1.43
0.3162278 µM | -0.689
1 µM | -0.976
3.16228 µM | -0.886
10 µM | -0.634
31.6228 µM | -0.209
100 µM | 1.34

O=c1[nH]cnc2c1ncn2C1CCC(CO)O1 (configuration not stated) [2',3'-Dideoxyinosine]
Settings | LDH release cytotoxicity [%]
0.03162 µM | -2.26
0.1 µM | -1.91
0.3162278 µM | -1.96
1 µM | -1.29
3.16228 µM | -1.75
10 µM | -1.3
31.6228 µM | -1.11
100 µM | -0.428

CCCCC(CC)COC(=O)CCCCCCCCC(=O)OCC(CC)CCCC (configuration not stated) [Bis(2-ethylhexyl) decanedioate]
Settings | LDH release cytotoxicity [%]
0.03162 µM | -11.5
0.1 µM | -10.5
0.3162278 µM | -10.7
1 µM | -10.2
3.16228 µM | -10.2
10 µM | -10.1
31.6228 µM | -9.5
100 µM | -8.97

Cn1c(-c2ccccc2)cc(-c2ccccc2)[n+]1C [Difenzoquat metilsulfate]
Settings | LDH release cytotoxicity [%]
0.03162 µM | -4.98
0.1 µM | -4.55
0.3162278 µM | -3.76
1 µM | -4.22
3.16228 µM | -3.44
10 µM | -3.6
31.6228 µM | -2.99
100 µM | -1.18

CCOC(=O)CC(SP(=O)(OC)OC)C(=O)OCC (configuration not stated) [Malaoxon]
Settings | LDH release cytotoxicity [%]
0.031623 µM | -0.0319
0.1 µM | -1.49
0.316228 µM | -2.33
1 µM | -2.43
3.16228 µM | -2.14
10 µM | -2.43
31.6228 µM | -1.77
100 µM | -0.859

O=[N+]([O-])C(CO)(CO)CO [2-(Hydroxymethyl)-2-nitro-1,3-propanediol]
Settings | LDH release cytotoxicity [%]
0.03162 µM | 0.0153
0.1 µM | -1.5
0.3162278 µM | -1.73
1 µM | -0.843
3.16228 µM | -0.932
10 µM | -1.24
31.6228 µM | -0.797
100 µM | 0.918

O=C1C(=O)C(c2ccc(O)c(O)c2)Oc2cc(O)cc(O)c21 (configuration not stated) [Quercetin]
Settings | LDH release cytotoxicity [%]
0.03162 µM | -0.715
0.1 µM | -0.382
0.3162278 µM | -1.09
1 µM | -1.24
3.16228 µM | -0.569
10 µM | -1.09
31.6228 µM | -1.1
100 µM | 10.6

COc1ccc(C)cc1N [2-Methoxy-5-methylaniline]
Settings | LDH release cytotoxicity [%]
0.03162 µM | -1.46
0.1 µM | -3.72
0.3162278 µM | -3.46
1 µM | -4.05
3.16228 µM | -3.672
10 µM | -4.54
31.6228 µM | -2.55
100 µM | 14.6

CC1(C)C(C(=O)OC(C#N)c2cccc(Oc3ccccc3)c2)C1(C)C (configuration not stated) [Fenpropathrin]
Settings | LDH release cytotoxicity [%]
0.03162 µM | -1.16
0.1 µM | -1.28
0.3162278 µM | 0.259
1 µM | -1.32
3.16228 µM | -1.08
10 µM | -0.114
31.6228 µM | 0.399
100 µM | 1.44

CCCCCCCCCC [Decane]
Settings | LDH release cytotoxicity [%]
0.031623 µM | -0.647
0.1 µM | -2.33
0.316228 µM | -2.41
1 µM | -2.73
3.16228 µM | -3.64
10 µM | -2.67
31.6228 µM | -1.91
100 µM | 0.361

OCCO [Ethylene glycol]
Settings | LDH release cytotoxicity [%]
0.0317809 µM | -0.738
0.1005 µM | -1.93
0.317809 µM | -2.04
1.005 µM | -2.45
3.17809 µM | -1.91
10.05 µM | -1.42
31.7809 µM | -1.26
100.5 µM | 0.328

CCCCCCCCCCCCCCO [1-Tetradecanol]
Settings | LDH release cytotoxicity [%]
0.03162 µM | -1.1
0.1 µM | -2.17
0.3162278 µM | -0.313
1 µM | -2.29
3.16228 µM | -2.1
10 µM | -1.49
31.6228 µM | -1.69
100 µM | 6.5

CCn1nc(C)c2c1C(=O)NCC(c1ccc(O)cc1)=N2
Settings | LDH release cytotoxicity [%]
0.03162 µM | -0.976
0.1 µM | -1.16
0.3162278 µM | -0.653
1 µM | -0.0547
3.16228 µM | 0.209
10 µM | 0.546
31.6228 µM | 1.6
100 µM | 3.89

CC(=O)SC(C(=O)NC1Cc2ccccc2C2CCCC(C(=O)O)N2C1=O)C(C)C (configuration not stated) [Ilepatril]
Settings | LDH release cytotoxicity [%]
0.03162 µM | -3.01
0.1 µM | -3.51
0.3162278 µM | -2.73
1 µM | -2.08
3.16228 µM | -2.73
10 µM | -1.99
31.6228 µM | -1.05
100 µM | -0.123

CCCCC(CC)COC(=O)CCCCC(=O)OCC(CC)CCCC (configuration not stated) [Bis(2-ethylhexyl)hexanedioate]
Settings | LDH release cytotoxicity [%]
0.03162 µM | -2.21
0.1 µM | -2.881
0.3162278 µM | -3.04
1 µM | -2.88
3.16228 µM | -2.66
10 µM | -2.86
31.6228 µM | -2.54
100 µM | -1.41

Cc1cc2c3c(c1)C(c1ccccc1)=NC(NC(=O)c1ccncc1)C(=O)N3CC2 (configuration not stated) [CI-1018]
Settings | LDH release cytotoxicity [%]
0.03162 µM | -1.91
0.1 µM | -1.63
0.3162278 µM | -1.51
1 µM | -2.27
3.16228 µM | -1.93
10 µM | -1.89
31.6228 µM | -2.24
100 µM | 5.94

CSc1nc(NC(C)C)nc(NC(C)C)n1 [Prometryn]
Settings | LDH release cytotoxicity [%]
0.031623 µM | 1.02
0.1 µM | -3.89
0.316228 µM | -3.27
1 µM | -2.93
3.16228 µM | -2.42
10 µM | -2.73
31.6228 µM | -3.26
100 µM | -1.44

CC(C)=CCC/C(C)=C/CO [Geraniol]
Settings | LDH release cytotoxicity [%]
0.03162 µM | -2.2
0.1 µM | -2.89
0.3162278 µM | -2.68
1 µM | -2.72
3.16228 µM | -2.26
10 µM | -1.87
31.6228 µM | -1.12
100 µM | -0.773

CCc1cccc(CC)c1N [2,6-Diethylaniline]
Settings | LDH release cytotoxicity [%]
0.03162 µM | -1.27
0.1 µM | -2.24
0.3162278 µM | -1.42
1 µM | -0.395
3.16228 µM | -0.592
10 µM | -1.25
31.6228 µM | -0.819
100 µM | -0.482

CCCCOC(=O)CCCCC(=O)OCCCC [Dibutyl adipate]
Settings | LDH release cytotoxicity [%]
0.0317809 µM | -0.761
0.1005 µM | -1.45
0.317809 µM | -1.74
1.005 µM | -1.12
3.17809 µM | -1.24
10.05 µM | -0.568
31.7809 µM | 0.579
100.5 µM | 2.35

CCCCCCCC[Si](OCC)(OCC)OCC [Triethoxyoctylsilane]
Settings | LDH release cytotoxicity [%]
0.03162 µM | -0.684
0.1 µM | 0.171
0.3162278 µM | -0.00576
1 µM | -0.327
3.16228 µM | 0.39
10 µM | 0.433
31.6228 µM | 0.376
100 µM | 1.59

CS(=O)(=O)c1ccc(C(=O)C2C(=O)CCCC2=O)c([N+](=O)[O-])c1 [Mesotrione]
Settings | LDH release cytotoxicity [%]
0.0320971 µM | 0.286
0.1015 µM | -0.676
0.320971 µM | -1.35
1.015 µM | -0.8
3.2097118 µM | -0.694
10.15 µM | -1.17
32.0971 µM | -1.09
101.5 µM | -1.76

Cc1ccc(-c2c(Cl)nc(C#N)n2S(=O)(=O)N(C)C)cc1 [Cyazofamid]
Settings | LDH release cytotoxicity [%]
0.03162 µM | 1.31
0.1 µM | -1.5
0.3162278 µM | -1.4
1 µM | -0.689
3.16228 µM | -1.5
10 µM | 43.2
31.6228 µM | 52.8
100 µM | 53.7
